Measurements from publication PMC4920673, “Nitroimidazole carboxamides as antiparasitic agents targeting Giardia lamblia, Entamoeba histolytica and Trichomonas vaginalis” (European Journal of Medicinal Chemistry, 2016).
Converted amounts (≈) assume the structure as drawn. Like-named read-outs stand apart in the source and are kept apart here.

Key:
[1] = tested on: G. lamblia WB (MtzS); test: ATP-bioluminescence growth/survival EC50 assay, G. lamblia WB; settings: for EC50: Giardia duodenalis; for S.I (CC50/EC50): average cytotoxicity against HEK293 and HepG2 / G. lamblia WB activity
Protocol: (§1) Compounds were screened for antiparasitic activity using an ATP-bioluminescence based assay for cell growth and survival, [24]. […] Viable cell numbers were determined in triplicate using the CellTiter-Glo Luminescent Cell Viability Assay.

[2] = tested on: G. lamblia 713M3 (MtzR); test: ATP-bioluminescence growth/survival EC50 assay, G. lamblia 713M3; assay type: cell-based, Giardia lamblia
Protocol: as §1

[3] = tested on: E. histolytica HM1:IMSS; test: ATP-bioluminescence growth/survival EC50 assay, E. histolytica; assay type: cell-based, Entamoeba histolytica; settings: Entamoeba histolytica
Protocol: as §1

[4] = tested on: T. vaginalis F1623; test: ATP-bioluminescence growth/survival EC50 assay, T. vaginalis; assay type: cell-based, Trichomonas vaginalis
Protocol: as §1

[5] = tested on: C. difficile 630 (ATCC BAA-1382); test: Broth microdilution MIC assay, C. difficile 630; assay type: cell-based, Clostridium difficile; settings: Clostridioides difficile, ATCCBAA1382
Protocol: Clostridium difficile strains (630, ATCC BAA-1382 and NAP1/027, ATCC BAA-1803) were maintained as previously described. The minimum inhibition concentration (MIC) was determined according to the CLSI Methods with modifications in broth and inoculum for C. difficile, [25], [26]. Briefly, compounds and control antibiotics were serially diluted two-fold in 96-well plates (Non-binding surface, Corning). […] C. difficile bacteria from BHIS(TA) agar plates were cultured anaerobically in BHIS at 37 °C overnight. […] An antibiotic standard, a positive growth control (no compound) and a sterility control (no bacteria) were included on each 96 well plate. Plates were covered and incubated at 37 °C for 24 h. MICs for each strain were determined as the lowest concentration without visible growth. […] Median MICs are reported with a range given when the median MIC was between two tested concentrations.

[6] = tested on: C. difficile NAP1/027 (ATCC BAA-1803); test: Broth microdilution MIC assay, C. difficile NAP1/027; assay type: cell-based, Clostridium difficile; settings: Clostridioides difficile, ATCCBAA1803; strain NAP1/027
Protocol: Clostridium difficile strains (630, ATCC BAA-1382 and NAP1/027, ATCC BAA-1803) were maintained as previously described. The minimum inhibition concentration (MIC) was determined according to the CLSI Methods with modifications in broth and inoculum for C. difficile, [25], [26]. Briefly, compounds and control antibiotics were serially diluted two-fold in 96-well plates (Non-binding surface, Corning). The plates were placed in a Coy anaerobic chamber (5% H2, 10% CO2, 85% N2) overnight to reduce the medium. C. difficile bacteria from BHIS(TA) agar plates were cultured anaerobically in BHIS at 37 °C overnight. […]. Compound concentration ranged from 64 to 0.03 μg/mL. An antibiotic standard, a positive growth control (no compound) and a sterility control (no bacteria) were included on each 96 well plate. Plates were covered and incubated at 37 °C for 24 h. MICs for each strain were determined as the lowest concentration without visible growth. Variance between replicates was typically within one 2-fold dilution. Median MICs are reported with a range given when the median MIC was between two tested concentrations.

[7] = Resazurin cytotoxicity assay, HEK293; assay type: cell-based, Human; settings: human, 24 h, highest concentration 100 μM, n = 3, read-out: CC50 HEK 293
Protocol: (§2) Human HEK293 and HepG2 cells were seeded at 3000 and 5000 cells per well in 384-well plates, respectively. Cells were cultured in Dulbecco's modified Eagle's medium with 10% FBS for 24 h at 37 °C, 5% CO2. A dilution series of compounds was added, with the highest concentration of 100 μM. […] After 24 h incubation with the compounds, 5 μM resazurin was added into each well and incubated at 37 °C for 2 h. As a negative control, 1% Triton X-100 was added into the culture media to lyse all of the cells. The fluorescence intensity was read using Polarstar Omega with excitation/emission 560/590 nm. Data were analysed with GraphPad Prism 6 software (La Jolla, California USA) to calculate CC50 values.

[8] = Resazurin cytotoxicity assay, HepG2; assay type: cell-based, Human; settings: human, 24 h, highest concentration 100 μM, n = 3, read-out: CC50 Hep G2
Protocol: as §2

[9] = read-out: EC50 G. lamblia WB, MtzS strain WB, minimum n = 3
[10] = read-out: pEC50 ± SE G. lamblia WB, MtzS strain WB (converted)
[11] = Giardia duodenalis, read-out: EC50 G. lamblia 713M3, MtzR strain 713M3, minimum n = 3
[12] = Giardia duodenalis, read-out: pEC50 ± SE G. lamblia 713M3, MtzR strain 713M3 (converted)
[13] = read-out: EC50 E. histolytica HM1:IMSS
[14] = read-out: pEC50 ± SE E. histolytica HM1:IMSS (converted)
[15] = Trichomonas vaginalis, read-out: EC50 T. vaginalis F1623, MtzS, minimum n = 3
[16] = Trichomonas vaginalis, read-out: pEC50 ± SE T. vaginalis F1623, MtzS (converted)
[17] = strain 630, MtzS, median of n = 4, read-out: MIC C. difficile 630
[18] = read-out: EC50 G. lamblia 713M3, MtzR strain 713M3, minimum n = 3
[19] = read-out: EC50 T. vaginalis F1623, MtzS, minimum n = 3

Row | Compound | EC50 [1, 9] | EC50 [1, 10] | S.I (CC50/EC50) [1] | EC50 [2, 11] | EC50 [2, 12] | EC50 [3, 13] | EC50 [3, 14] | EC50 [4, 15] | EC50 [4, 16] | MIC [5, 17] | MIC [6] | CC50 at 24 h ([7]; HEK293 cells) | CC50 at 24 h ([8]; HepG2 cells) | CC50 at 24 h [7] | CC50 at 24 h [8] | EC50 [2, 18] | EC50 [4, 19] | MIC ([5]; 630 and NAP1/027 strains together or strain not given, read-out: MIC C. difficile)
1 | Cn1c([N+](=O)[O-])cnc1C(=O)NCc1ccccn1 [Compound 8f, 1-methyl-5-nitro-N-(pyridin-2-ylmethyl)-1H-imidazole-2-carboxamide.xTFA] | 1.6 µM | 1.58 µM | >63 | 4.1 µM | 4.07 µM | 14 µM | 14.1 µM | 1.4 µM | 1.45 µM | 64 µg/mL | 64 µg/mL | > 100 µM | > 100 µM | – | – | – | – | –
2 | Cn1c([N+](=O)[O-])cnc1C(=O)N1CCCC1 [Compound 8i, (1-methyl-5-nitro-1H-imidazol-2-yl)(pyrrolidin-1-yl)methanone] | 2.9 µM | 2.88 µM | >34 | 4 µM | 3.98 µM | 22 µM | 21.9 µM | 1.7 µM | 1.74 µM | 64 µg/mL (≈ 285 µM) | 64 µg/mL (≈ 285 µM) | > 100 µM | > 100 µM | – | – | – | – | –
3 | Cn1c([N+](=O)[O-])cnc1C(=O)NC1CC1 [Compound 8j, N-cyclopropyl-1-methyl-5-nitro-1H-imidazole-2-carboxamide] | 3.4 µM | 3.39 µM | >29 | 8.6 µM | 8.71 µM | 12 µM | 12 µM | 1.1 µM | 1.1 µM | > 64 µg/mL | > 64 µg/mL | > 100 µM | > 100 µM | – | – | – | – | –
4 | O=C(NCc1cccc(OC(F)(F)F)c1)c1ncc([N+](=O)[O-])[nH]1 [Compound 12c, 5-nitro-N-(3-(trifluoromethoxy)benzyl)-1H-imidazole-2-carboxamide] | 0.2 µM | 0.2 µM | >500 | 15 µM | 14.8 µM | 3.6 µM | 3.63 µM | 1.9 µM | 1.91 µM | 16 µg/mL (≈ 48.5 µM) | 16 µg/mL (≈ 48.5 µM) | – | – | > 100 µM | > 100 µM | – | – | –
5 | CC(NC(=O)c1ncc([N+](=O)[O-])[nH]1)c1ccc(F)cc1 (centres unmarked) [Compound 12d, N-(1-(4-fluorophenyl)ethyl)-5-nitro-1H-imidazole-2-carboxamide] | 0.4 µM | 0.398 µM | >250 | ≤ 2.5 µM | 1.26 µM | 1.7 µM | 1.7 µM | 0.6 µM | 0.589 µM | 8 µg/mL (≈ 28.8 µM) | 8 µg/mL (≈ 28.8 µM) | > 100 µM | > 100 µM | – | – | 1.3 µM | – | –
6 | Cc1ccc(CCNC(=O)c2ncc([N+](=O)[O-])[nH]2)cc1 [Compound 12e, N-(4-methylphenethyl)-5-nitro-1H-imidazole-2-carboxamide] | 0.1 to 0.6 µM | 0.1 µM | >1000 | ≤ 2.5 µM | 1.35 µM | 2.1 µM | 2.09 µM | 1.2 to 2.3 µM | 1.2 µM | 8 µg/mL (≈ 29.2 µM) | 8 µg/mL (≈ 29.2 µM) | > 100 µM | > 100 µM | – | – | 1.4 µM | 1.2 µM | 4 to 16 µg/mL (≈ 14.6 to 58.3 µM)
7 | O=C(NCc1ccccn1)c1ncc([N+](=O)[O-])[nH]1 [Compound 12f, 5-nitro-N-(pyridin-2-ylmethyl)-1H-imidazole-2-carboxamide] | 7.2 µM | 7.24 µM | >14 | > 20 µM | > 20 µM | 15 µM | 15.1 µM | 7.1 µM | 7.08 µM | 2 µg/mL (≈ 8.09 µM) | 2 µg/mL (≈ 8.09 µM) | > 100 µM | > 100 µM | – | – | – | – | –
8 | CN(C)C(=O)c1ncc([N+](=O)[O-])[nH]1 [Compound 12g, N,N-dimethyl-5-nitro-1H-imidazole-2-carboxamide] | 8.3 µM | 8.32 µM | >12 | > 20 µM | > 20 µM | 2.7 µM | 2.69 µM | 2.4 µM | 2.34 µM | 2 µg/mL (≈ 10.9 µM) | 2 µg/mL (≈ 10.9 µM) | > 100 µM | > 100 µM | – | – | – | – | –
9 | O=C(c1ncc([N+](=O)[O-])[nH]1)N1CCCC1 [Compound 12i, (5-nitro-1H-imidazol-2-yl)(pyrrolidin-1-yl)methanone] | 3.4 µM | 3.39 µM | >29 | 13 µM | 13.2 µM | 4.3 µM | 4.27 µM | 1.2 to 2.3 µM | 1.7 µM | 2 µg/mL (≈ 9.52 µM) | 2 µg/mL (≈ 9.52 µM) | > 100 µM | > 100 µM | – | – | – | 1.7 µM | –
